According to publication PMC3436892, “Novel African Trypanocidal Agents: Membrane Rigidifying Peptides” (PLoS ONE, 2012):

Legend:
[1] = Parallax analysis of tryptophan penetration depth; type: physicochemical; conditions: for F1/F2 ± S.D.: ratio of tryptophan fluorescence intensity (357 nm) with shallow (6,7-dibromo-PC, F1) and deep (9,10-dibromo-PC, F2) quencher, 200 µg/ml liposomes, at least triplicate
Protocol: The hydrocarbon penetration depth of tryptophans spaced throughout synthetic peptides corresponding to SHP-1 or SHP-3 (Table S1) was determined by parallax analysis with brominated phosphatidylcholine liposomes. Large unilamellar liposomes composed of egg phosphatidylcholine and 10 mol % 1-palmitoyl-2-(6,7-dibromo)stearoyl-sn-glycero-3-phosphocholine (shallow quencher) or 1-palmitoyl-2-(9,10-dibromo)stearoyl-sn-glycero-3-phosphocholine (deep quencher) were constructed by hydration of a thin dry lipid film with phosphate buffered saline. Resulting multilamellar liposomes were made unilameller via extrusion through polycarbonate filters with 0.1 µm pores. Peptides (500 nM) were incubated with 200 µg/ml liposomes in phosphate buffered saline at 37°C for 22 h. Tryptophan fluorescence at 357 nm was measured from at least triplicate trials in the PerkinElmer Life Sciences LS55 spectrofluorometer and an excitation wavelength of 280 nm for SHP-1 and 290 nm for SHP-2, 10 nm excitation and 9 nm emission slit widths. The distance of tryptophans from the bilayer center (ZCF) is calculated from the equation [12]: [drawing 1] Where LC1 is the distance from the center of the bilayer to the shallow quencher, in this case 10.8 Å for 6,7-dibromo-PC [25], F1 is the intensity of tryptophan in the presence of the shallow quencher and F2 is the tryptophan intensity in the presence of the deep quencher, C is the mole fraction of quencher divided by the area of individual phospholipid (70 Å^2), and L21 is the difference in the depth of the two quenchers (2.7 Å). The hydrocarbon insertion depth of tryptophans is then given by one half the bilayer thickness, 29 Å [25], minus ZCF.

Live BSF T. b. brucei = experiment: Trypanosome motility scoring by DIC microscopy; type: cell-based, Trypanosoma brucei brucei
Protocol: All images and videos were acquired with an Axio Observer Z1 equipped with an AxioCam MRm controlled by AxioVision 4.6 software. Videos were acquired with live cells at a density of 1×10^7 cells/mL in HMI 9 media with 10 % fetal bovine serum, incubated with 40 µM SHP at 37°C. Trypanosomes were visualized at magnification 63 × and videos were recorded with 100-ms acquisition times. The motility of BSF trypanosomes was scored directly or from video playback. Trypanosome motility was classified as normal, hyperactive or constricted as described previously. An example of a trypanosome scored as normal is shown in Movie S1. […] Data in figure 2D is shown as the average of at least duplicate trials with standard deviations.

BSF T. b. brucei [2] = experiment: 2 h killing assay, BSF T. b. brucei; type: cell-based, Trypanosoma brucei brucei; conditions: light microscopy (Fig. 1d, Figure S2a)
[3] = Calcein release (membrane interaction) assay; type: physicochemical; conditions: unilamellar egg phosphatidylcholine liposomes with 30 mM calcein, PBS, 0.2-4 µM peptide, fluorescence 484/513 nm (Figure S2b, c)
Protocol: Trypanosome killing and membrane interaction with SHP tryptophan variants. […] (b) The ability of SHP-1 tryptophan variants, 1 µM SHP-1ΔW1 (orange ? ), 1 µM SHP-1ΔW8 (green ? ), 0.2 µM SHP-1 (blue ? ) and 0.2 µM SHP-1ΔW18 (red ? ), and (c) SHP-3 tryptophan variants, 1 µM SHP-3ΔW1 (orange ? ), 1 µM SHP-3 (blue ? ), 1 µM SHP-3ΔW13 (red ? ) and 4 µM SHP-3ΔW20 (green ? ), to interact with lipid bilayers was determined by monitoring the release of entrapped calcein from unilamellar egg phosphatidylcholine liposomes.
Calcein Release Assays – Membrane permeabilization assays were conducted as described in detail previously. Unilamellar liposomes were constructed as described above but with 30 mM calcein in 10 mM Hepes as the hydration buffer. Untrapped dye was removed by gel filtration (Sephacryl S-300 HR, GE Healthcare). Liposomes were diluted 1:1000 into phosphate buffered saline, and calcein fluorescence was monitored at 513 nm when excited at 484 nm. The percent calcein release was calculated relative to the 100% fluorescence intensity, achieved by the addition of 0.01% Triton X-100.

BSF T. b. brucei [4] = experiment: Flow cytometry peptide binding; type: cell-based, Trypanosoma brucei brucei; conditions: 8 µM FITC-labeled peptide, 3×10^6 cells/ml, HMI 9 plus 10 % fetal bovine serum, 25 °C, 50,000 cells counted immediately, flow cytometry (Figure S1)
Protocol: SHP binding to BSF T. b. brucei. FITC-labeled SHP-1 (blue ? ) and SHP-3 (green ? ) were assayed for binding to BSF T. b. brucei via flow cytometry (no peptide, red ? ) . Trypanosomes were adjusted to 3 × 10^6 cells/ml in HMI 9 media with 10 % fetal bovine serum, 8 µM FITC-SHP-1 or FITC-SHP-3 was added and 50,000 cells were immediately counted.
Flow Cytometry – Peptide binding to BSF T. b. brucei was monitored by flow cytometry as described previously. Binding assays were performed with 3 × 10^6 cells/ml in HMI 9 plus 10 % fetal bovine serum at 25 °C. FITC-labeled SHP-1 or SHP-3 was added to a final concentration of 8 µM and 50,000 cells were immediately counted on a CyAn ADP flow cytometer (Dako). Data were analyzed with FlowJo software (TreeStar Inc.).

[5] = 500 nM peptide, PBS, 37°C, 22 h
[6] = 40 µM SHP, 37°C, 1×10^7 cells/mL, HMI 9 with 10 % fetal bovine serum, DIC microscopy, at least duplicate (Fig. 2d)

With “WDLGAVISLLLGGRQLFA [SHP-1∆W1, SHP-1 tryptophan variant, Trp at position 1]” the “F1/F2 ± S.D.” value [1, 5] was 0.8897 ± 0.1112.

With “FHQIWAALLYFYGIILNSIY [SHP-3, non-trypanocidal small hydrophobic peptide derived from an apolipoprotein]” the “constriction of motility following hyperactivation” value (Live BSF T. b. brucei; [6]) was “subsequent constriction does not occur”, the hyperactivation of motility (Live BSF T. b. brucei; [6]) was “some hyperactivation” and the “motility approximately 30 sec after addition” value (Live BSF T. b. brucei; 40 µM peptide, DIC video microscopy, representative cells (Movies S2, S3)) was “hyperactivated motility”. For the same sequence, the “trypanocidal activity against BSF T. b. brucei” value (BSF T. b. brucei [2]) was “no trypanocidal activity was detected”, the “insertion depth of native tryptophan, position 5” value ([1]; 500 nM peptide, 200 µg/ml brominated egg PC liposomes, PBS, 37°C, 22 h) was “approximately 1.6 Å” and the “quenching of N-terminal tryptophan (position 1)” value ([1]; Trp-substituted variant W1, suggests it does not intercalate into the hydrocarbon region) was “inefficiently quenched”. The “insertion depth of tryptophan at position 13” value ([1]; Trp-substituted variant W13, 500 nM peptide, 200 µg/ml brominated egg PC liposomes, PBS, 37°C, 22 h) was “approximately 4.7 Å”, the “insertion depth of C-terminal tryptophan (position 20)” value ([1]; Trp-substituted variant W20, 500 nM peptide, 200 µg/ml brominated egg PC liposomes, PBS, 37°C, 22 h) was “approximately 11.2 Å” and the “F1/F2 ± S.D.” value [1, 5] was 0.9202 ± 0.1260. For the same sequence, the “membrane interaction (release of entrapped calcein from liposomes)” value [3] was “exhibit membrane interaction” and the “binding to BSF T. brucei” value (BSF T. b. brucei [4]) was “binding to BSF T. brucei”.

In the case of “SDLGAVIWLLLGGRQLFA [SHP-1∆W8, SHP-1 tryptophan variant, Trp at position 8]”, the “F1/F2 ± S.D.” value [1, 5] is reported as 0.9767 ± 0.0717.

With “FHQIGAALLYFYGIILNSIW [SHP-3∆W20, SHP-3 tryptophan variant, Trp at position 20]” the “F1/F2 ± S.D.” value [1, 5] was 1.1620 ± 0.3194.

For “SDLGAVISLLLGGRQLFW [SHP-1∆W18, SHP-1 tryptophan variant, Trp at position 18]”, the “F1/F2 ± S.D.” value [1, 5] was 0.9285 ± 0.1557.

With “FHQIGAALLYFYWIILNSIY [SHP-3∆W13, SHP-3 tryptophan variant, Trp at position 13]” the “F1/F2 ± S.D.” value [1, 5] was 0.9912 ± 0.0787.
